# Measurements as given in ChEMBL document CHEMBL5465560, “Selectivity Literature for EUbOPEN Chemogenomic Library” (2024).
# Assays:
# [1] = molecular target: Protein arginine N-methyltransferase 6 (Homo sapiens, UniProt Q96LA8); assay: Selectivity interaction (Scintillation proximity assays) EUB0000255b PRMT6
# [2] = molecular target: Histone-lysine N-methyltransferase KMT5B (Homo sapiens) (UniProt Q4FZB7); assay: Selectivity interaction (Methyltransferase screen (Scintillation proximity assays)) EUB0000255b SUV420H1
# Histone-lysine N-methyltransferase KMT5B (Homo sapiens), sequence (Q4FZB7 whole entry, looked up): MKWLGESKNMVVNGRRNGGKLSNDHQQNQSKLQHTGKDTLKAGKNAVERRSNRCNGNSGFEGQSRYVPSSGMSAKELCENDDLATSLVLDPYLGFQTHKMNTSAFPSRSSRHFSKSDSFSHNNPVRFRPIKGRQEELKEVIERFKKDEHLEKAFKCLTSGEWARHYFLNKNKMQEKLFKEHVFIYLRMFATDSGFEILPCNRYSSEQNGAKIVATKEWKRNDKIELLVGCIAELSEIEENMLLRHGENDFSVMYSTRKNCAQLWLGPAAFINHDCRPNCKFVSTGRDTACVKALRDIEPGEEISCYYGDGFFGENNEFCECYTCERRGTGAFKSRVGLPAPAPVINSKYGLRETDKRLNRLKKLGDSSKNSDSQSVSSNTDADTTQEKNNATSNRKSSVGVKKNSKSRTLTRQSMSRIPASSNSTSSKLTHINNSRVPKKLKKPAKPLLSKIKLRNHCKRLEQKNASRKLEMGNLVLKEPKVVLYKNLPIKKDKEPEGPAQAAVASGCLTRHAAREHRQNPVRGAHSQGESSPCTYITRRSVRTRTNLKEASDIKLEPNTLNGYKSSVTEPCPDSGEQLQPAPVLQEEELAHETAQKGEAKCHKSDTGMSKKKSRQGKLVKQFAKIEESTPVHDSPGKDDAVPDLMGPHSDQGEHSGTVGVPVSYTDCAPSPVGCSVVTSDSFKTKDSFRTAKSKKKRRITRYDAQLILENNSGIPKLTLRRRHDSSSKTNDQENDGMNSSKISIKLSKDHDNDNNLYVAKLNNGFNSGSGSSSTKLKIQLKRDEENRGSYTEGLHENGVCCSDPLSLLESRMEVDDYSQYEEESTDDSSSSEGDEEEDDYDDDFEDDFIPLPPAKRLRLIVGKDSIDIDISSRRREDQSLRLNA
# [3] = molecular target: Proto-oncogene tyrosine-protein kinase Src (Homo sapiens, UniProt P12931); assay: Selectivity interaction (Kinase panel (literature)) EUB0001199aCl SRC; conditions: at 1 µM
# Proto-oncogene tyrosine-protein kinase Src, sequence (P12931 2-536 limits assumed): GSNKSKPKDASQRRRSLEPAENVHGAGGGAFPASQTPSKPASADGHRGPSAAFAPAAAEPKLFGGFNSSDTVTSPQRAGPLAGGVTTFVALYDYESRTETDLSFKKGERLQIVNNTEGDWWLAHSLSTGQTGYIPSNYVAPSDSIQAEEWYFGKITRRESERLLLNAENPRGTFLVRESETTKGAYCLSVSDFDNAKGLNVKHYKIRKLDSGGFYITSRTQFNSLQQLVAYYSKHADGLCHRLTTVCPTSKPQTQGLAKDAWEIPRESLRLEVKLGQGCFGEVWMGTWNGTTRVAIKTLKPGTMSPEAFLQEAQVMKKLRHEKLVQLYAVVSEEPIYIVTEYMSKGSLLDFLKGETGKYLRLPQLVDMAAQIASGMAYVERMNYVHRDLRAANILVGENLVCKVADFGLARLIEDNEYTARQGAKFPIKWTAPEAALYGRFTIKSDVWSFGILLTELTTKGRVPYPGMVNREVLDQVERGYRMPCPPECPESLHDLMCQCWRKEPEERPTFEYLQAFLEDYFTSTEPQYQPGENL
# [4] = molecular target: Cyclin-dependent kinase 8 (Homo sapiens, UniProt P49336); assay: Selectivity interaction (KinomeScan (DiscoverX)) EUB0000607a CDK8; conditions: at 10 µM
# Cyclin-dependent kinase 8, sequence (P49336 whole entry): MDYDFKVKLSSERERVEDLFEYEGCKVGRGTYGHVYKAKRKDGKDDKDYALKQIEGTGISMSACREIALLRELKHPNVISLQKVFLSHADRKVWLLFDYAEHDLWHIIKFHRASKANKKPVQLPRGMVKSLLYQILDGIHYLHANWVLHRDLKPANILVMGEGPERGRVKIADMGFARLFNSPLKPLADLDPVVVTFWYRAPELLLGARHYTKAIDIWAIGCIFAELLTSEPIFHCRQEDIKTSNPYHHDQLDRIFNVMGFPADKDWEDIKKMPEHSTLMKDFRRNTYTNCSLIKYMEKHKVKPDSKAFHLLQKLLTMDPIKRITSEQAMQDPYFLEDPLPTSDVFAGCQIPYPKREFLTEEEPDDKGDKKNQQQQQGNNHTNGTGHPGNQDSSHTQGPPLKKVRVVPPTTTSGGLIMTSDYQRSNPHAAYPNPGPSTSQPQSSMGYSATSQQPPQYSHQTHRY
# [5] = molecular target: T1, TGF-beta receptor type-1 (Homo sapiens) (UniProt P36897); assay: Selectivity interaction (KinomeScan (DiscoverX)) EUB0000607a TGFBR1; conditions: at 10 µM
# T1 sequence (whole entry): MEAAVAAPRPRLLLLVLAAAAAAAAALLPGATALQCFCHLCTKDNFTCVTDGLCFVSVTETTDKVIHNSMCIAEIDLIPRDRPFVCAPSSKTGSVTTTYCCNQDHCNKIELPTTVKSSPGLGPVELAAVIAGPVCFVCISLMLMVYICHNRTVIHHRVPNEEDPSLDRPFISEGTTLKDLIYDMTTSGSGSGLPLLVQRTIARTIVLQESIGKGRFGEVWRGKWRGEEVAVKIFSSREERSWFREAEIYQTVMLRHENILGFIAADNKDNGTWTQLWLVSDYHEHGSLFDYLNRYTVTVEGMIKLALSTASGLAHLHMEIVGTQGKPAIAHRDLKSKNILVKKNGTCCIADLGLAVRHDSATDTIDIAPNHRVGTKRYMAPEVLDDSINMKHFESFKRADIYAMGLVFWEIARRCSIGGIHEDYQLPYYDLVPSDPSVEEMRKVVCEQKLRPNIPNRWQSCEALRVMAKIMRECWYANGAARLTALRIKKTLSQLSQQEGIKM
# [6] = molecular target: DNA-dependent protein kinase catalytic subunit (Homo sapiens) (UniProt P78527); assay: Selectivity interaction (ActivX KiNativ screen (ex vivo kinase selectivity in human PBMCs)) EUB0001619a PRKDC; assay type: cell-based; conditions: PBMC, at 1 µM
# [7] = molecular target: Serine/threonine-protein kinase WNK1 (Homo sapiens) (UniProt Q9H4A3); assay: Selectivity interaction (KinomeScan (DiscoverX)) EUB0001619a WNK1; conditions: at 1 µM
# [8] = molecular target: Tyrosine-protein kinase Fer (Homo sapiens) (UniProt P16591); assay: Selectivity interaction (Kinase panel (KiNativ target engagement assay in Jurkat cells)) EUB0001635a FER; assay type: cell-based; conditions: Selectivity number of off-targets 0.0, Selectivity number of targets 233.0, Source Knowledge https://www.sciencedirect.com/science/article/pii/S2451945619300674?via%3Dihub, at 1 µM
# Tyrosine-protein kinase Fer (Homo sapiens), sequence (P16591 whole entry, looked up): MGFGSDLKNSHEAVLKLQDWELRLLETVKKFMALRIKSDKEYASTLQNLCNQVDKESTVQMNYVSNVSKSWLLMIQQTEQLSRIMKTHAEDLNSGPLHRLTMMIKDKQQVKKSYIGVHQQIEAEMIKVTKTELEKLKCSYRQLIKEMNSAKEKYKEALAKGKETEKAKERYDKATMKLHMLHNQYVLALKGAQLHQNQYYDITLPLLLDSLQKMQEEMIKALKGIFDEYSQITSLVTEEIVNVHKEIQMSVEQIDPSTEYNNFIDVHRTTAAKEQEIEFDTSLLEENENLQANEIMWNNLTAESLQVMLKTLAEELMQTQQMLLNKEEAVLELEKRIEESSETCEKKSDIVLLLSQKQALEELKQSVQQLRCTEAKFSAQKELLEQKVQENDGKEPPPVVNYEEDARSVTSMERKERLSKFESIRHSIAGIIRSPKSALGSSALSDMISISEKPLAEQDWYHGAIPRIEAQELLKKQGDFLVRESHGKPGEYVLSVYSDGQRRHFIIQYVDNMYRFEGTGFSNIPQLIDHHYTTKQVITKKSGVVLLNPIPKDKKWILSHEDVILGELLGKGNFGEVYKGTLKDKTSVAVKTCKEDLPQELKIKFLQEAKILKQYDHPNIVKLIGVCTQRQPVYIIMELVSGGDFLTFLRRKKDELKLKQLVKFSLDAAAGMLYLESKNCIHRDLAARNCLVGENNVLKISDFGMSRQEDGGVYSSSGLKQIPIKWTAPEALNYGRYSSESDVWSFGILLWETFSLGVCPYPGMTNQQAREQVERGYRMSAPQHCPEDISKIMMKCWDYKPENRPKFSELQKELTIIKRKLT
# [9] = molecular target: T2, Serine/threonine-protein kinase TAO2 (Homo sapiens) (UniProt Q9UL54); conditions: at 10 µM
# T2 sequence (whole entry): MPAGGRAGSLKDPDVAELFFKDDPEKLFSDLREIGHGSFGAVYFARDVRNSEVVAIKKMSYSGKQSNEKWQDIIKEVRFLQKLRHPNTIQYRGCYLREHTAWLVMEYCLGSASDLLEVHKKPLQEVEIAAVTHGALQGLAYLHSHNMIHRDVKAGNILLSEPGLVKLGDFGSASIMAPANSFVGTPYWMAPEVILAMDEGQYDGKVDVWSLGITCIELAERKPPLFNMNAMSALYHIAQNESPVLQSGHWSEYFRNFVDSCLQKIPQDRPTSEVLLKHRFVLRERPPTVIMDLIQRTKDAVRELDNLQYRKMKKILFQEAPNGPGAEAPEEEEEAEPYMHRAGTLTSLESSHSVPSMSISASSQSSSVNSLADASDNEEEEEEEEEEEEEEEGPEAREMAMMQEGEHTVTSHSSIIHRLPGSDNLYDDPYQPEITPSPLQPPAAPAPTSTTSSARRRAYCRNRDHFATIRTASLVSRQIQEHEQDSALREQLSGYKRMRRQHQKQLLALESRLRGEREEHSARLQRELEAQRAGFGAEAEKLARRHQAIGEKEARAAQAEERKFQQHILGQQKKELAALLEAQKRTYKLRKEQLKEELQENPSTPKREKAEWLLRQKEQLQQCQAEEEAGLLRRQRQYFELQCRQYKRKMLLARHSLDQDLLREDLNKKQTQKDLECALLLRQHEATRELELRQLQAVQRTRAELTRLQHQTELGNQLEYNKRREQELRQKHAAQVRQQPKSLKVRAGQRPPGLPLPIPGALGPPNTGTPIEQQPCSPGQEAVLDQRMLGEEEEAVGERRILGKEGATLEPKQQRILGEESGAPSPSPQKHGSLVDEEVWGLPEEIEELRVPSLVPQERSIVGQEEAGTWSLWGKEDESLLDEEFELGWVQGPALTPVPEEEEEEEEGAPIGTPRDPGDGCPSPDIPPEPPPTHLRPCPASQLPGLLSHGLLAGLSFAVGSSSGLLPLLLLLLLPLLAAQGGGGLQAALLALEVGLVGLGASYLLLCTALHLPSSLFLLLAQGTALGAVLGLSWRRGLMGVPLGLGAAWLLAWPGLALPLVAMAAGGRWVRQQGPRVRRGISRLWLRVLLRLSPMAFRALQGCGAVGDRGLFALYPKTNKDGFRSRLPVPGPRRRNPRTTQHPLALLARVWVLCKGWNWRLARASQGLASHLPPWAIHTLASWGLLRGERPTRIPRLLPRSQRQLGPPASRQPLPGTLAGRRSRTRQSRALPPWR
# [10] = molecular target: Interleukin-1 receptor-associated kinase 1 (Homo sapiens) (UniProt P51617); assay: Selectivity interaction (KinomeScan (DiscoverX)) EUB0000229b IRAK1; conditions: at 10 µM
# Interleukin-1 receptor-associated kinase 1 (Homo sapiens), sequence (P51617 whole entry, looked up): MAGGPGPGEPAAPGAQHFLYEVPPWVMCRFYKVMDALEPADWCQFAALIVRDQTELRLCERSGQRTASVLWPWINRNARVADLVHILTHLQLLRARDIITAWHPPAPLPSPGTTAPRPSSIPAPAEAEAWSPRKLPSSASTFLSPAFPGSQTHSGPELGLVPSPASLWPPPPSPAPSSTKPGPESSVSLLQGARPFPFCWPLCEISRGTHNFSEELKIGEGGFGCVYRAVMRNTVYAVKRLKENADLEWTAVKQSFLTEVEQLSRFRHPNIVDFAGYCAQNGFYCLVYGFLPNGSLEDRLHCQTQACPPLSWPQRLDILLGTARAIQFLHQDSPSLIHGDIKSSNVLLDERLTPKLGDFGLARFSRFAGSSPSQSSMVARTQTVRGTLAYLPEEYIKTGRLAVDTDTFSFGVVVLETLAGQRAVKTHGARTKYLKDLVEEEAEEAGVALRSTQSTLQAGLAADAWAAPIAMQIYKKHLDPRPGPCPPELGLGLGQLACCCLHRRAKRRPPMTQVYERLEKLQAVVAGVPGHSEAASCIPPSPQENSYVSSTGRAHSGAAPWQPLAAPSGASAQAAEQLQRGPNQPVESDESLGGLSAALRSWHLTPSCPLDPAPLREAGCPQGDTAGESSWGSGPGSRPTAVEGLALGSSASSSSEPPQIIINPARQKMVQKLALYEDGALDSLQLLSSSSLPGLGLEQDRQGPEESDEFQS
# [11] = system: Tyrosine-protein kinase ABL1 (Homo sapiens), P00519 [T315I]; assay: (§1) Selectivity interaction (KinomeScan (DiscoverX)) EUB0000666a ABL1; conditions: at 10 µM
# [12] = system: Tyrosine-protein kinase ABL1 (Homo sapiens), P00519 [F317L]; assay: as §1; conditions: at 10 µM
# [13] = system: Tyrosine-protein kinase ABL1 (Homo sapiens), P00519 [Q252H]; assay: as §1; conditions: at 10 µM
# [14] = system: Tyrosine-protein kinase ABL1 (Homo sapiens), P00519 [E255K]; assay: as §1; conditions: at 10 µM
# [15] = molecular target: Tyrosine-protein kinase ABL1 (Homo sapiens, UniProt P00519); assay: as §1; conditions: at 10 µM
# [16] = system: Tyrosine-protein kinase ABL1 (Homo sapiens), P00519 [F317I]; assay: as §1; conditions: at 10 µM
# [17] = system: Tyrosine-protein kinase ABL1 (Homo sapiens), P00519 [H396P]; assay: as §1; conditions: at 10 µM
# [18] = molecular target: Tyrosine-protein kinase Fgr (Homo sapiens) (UniProt P09769); assay: Selectivity interaction (KinomeScan (DiscoverX)) EUB0000666a FGR; conditions: at 10 µM
# Tyrosine-protein kinase Fgr (Homo sapiens), sequence (P09769 2-529 limits assumed): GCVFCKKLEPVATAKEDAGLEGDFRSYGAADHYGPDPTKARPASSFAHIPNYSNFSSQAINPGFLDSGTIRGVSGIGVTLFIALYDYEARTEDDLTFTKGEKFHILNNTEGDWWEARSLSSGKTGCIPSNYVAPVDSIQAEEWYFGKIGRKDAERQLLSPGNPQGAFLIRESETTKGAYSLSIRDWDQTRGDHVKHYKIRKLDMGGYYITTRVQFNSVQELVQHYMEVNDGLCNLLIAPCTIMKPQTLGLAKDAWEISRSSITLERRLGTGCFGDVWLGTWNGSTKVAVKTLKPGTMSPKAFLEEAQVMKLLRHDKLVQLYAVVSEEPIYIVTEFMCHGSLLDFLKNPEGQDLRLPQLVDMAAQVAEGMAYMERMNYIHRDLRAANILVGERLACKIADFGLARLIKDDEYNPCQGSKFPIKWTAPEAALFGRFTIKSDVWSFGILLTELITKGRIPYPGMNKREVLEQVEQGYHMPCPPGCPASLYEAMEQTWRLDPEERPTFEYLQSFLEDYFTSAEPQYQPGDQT
# [19] = molecular target: Serine/threonine-protein kinase MRCK gamma (Homo sapiens) (UniProt Q6DT37); assay: Selectivity interaction (KinomeScan (DiscoverX)) EUB0000092b CDC42BPG; conditions: at 10 µM
# Protein arginine N-methyltransferase 6, sequence (Q96LA8 whole entry): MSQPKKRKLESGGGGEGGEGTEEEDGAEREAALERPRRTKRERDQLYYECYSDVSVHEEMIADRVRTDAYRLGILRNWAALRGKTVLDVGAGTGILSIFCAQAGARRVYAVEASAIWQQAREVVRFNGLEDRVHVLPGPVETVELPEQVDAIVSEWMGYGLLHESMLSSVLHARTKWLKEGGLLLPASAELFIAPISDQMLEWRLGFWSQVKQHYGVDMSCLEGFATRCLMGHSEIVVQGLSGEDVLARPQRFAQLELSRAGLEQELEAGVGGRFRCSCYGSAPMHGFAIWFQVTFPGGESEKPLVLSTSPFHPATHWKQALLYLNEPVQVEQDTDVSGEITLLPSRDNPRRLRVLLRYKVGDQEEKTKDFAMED
compound,measurement,setting,value
COCCN1CCC(c2cc(CN(C)C(=O)c3cccc(Oc4ccccc4)c3)ccn2)CC1,IC50,[1],> 10 µM
same,% activity,[2]; at 1 µM,> 95%
same,% activity,[2]; at 10 µM,> 90%
CN1Cc2nccc(-c3cn(C)nc3-c3ccc(F)cc3)c2C1=O,% of inhibition,[3],6%
CNC(=O)Nc1ccc(-c2nc(N3CC4CCC(C3)O4)c3cnn(C4CCC5(CC4)OCCO5)c3n2)cc1,% of control,[4],100%
same,% of control,[5],100%
N#Cc1cccc(-c2c[nH]c3ncnc(N4CCOCC4)c23)c1,% of inhibition,[6],-6%
same,% of control,[7],100%
C=CC(=O)Nc1ccc(C(=O)Nc2[nH]nc3c2CN(C(=O)N[C@H](CN(C)C)c2ccccc2)C3(C)C)cc1,% of engagement,[8],-2.6%
Cc1cc([C@@H](C)Nc2ccccc2C(=O)O)c2nc(N3CCOCC3)cc(=O)n2c1 [AZD-6482],% of control,[9],94%
COc1cc(N(C)c2ccnc3ccc(C(F)(F)F)cc23)cc(OC)c1OC,% binding,[10],88%
O=C(NOC[C@H](O)CO)c1ccc(F)c(F)c1Nc1ccc(I)cc1F,% of control,[11],82%
same,% of control,[12],100%
same,% of control,[13],100%
same,% of control,[14],100%
same,% of control,[15],77%
same,% of control,[16],100%
same,% of control,[17],100%
same,% of control,[18],95%
CCC(=O)N1CCN(c2ccc(-n3c(=O)ccc4cnc5ccc(-c6cnc7ccccc7c6)cc5c43)cc2C(F)(F)F)CC1,% of control,[19],1.6%
